IC50 data for 17 compounds are collected here from patent US20240050428A1 (Cullgen (Shanghai), Inc., priority 2020, published 2024).

Test [1] relates to MV4;11 cells. The test can be described thus: Cell viability assay (CellTiter-Glo) in MV4;11 cells, alone or with gilteritinib. Format: cell-based. The settings on record: Homo sapiens, MV4;11 cells, CellTiter-Glo, read-out: MV4. In general terms: In ATP-based viability assays light output follows the ATP content of the culture.
The test system of test [2] is MOLM-13 cells. As to the kind of experiment: Cell viability assay (CellTiter-Glo) in MOLM-13 cells, alone or with gilteritinib. Format: cell-based. The settings on record: Homo sapiens, MOLM-13 cells, CellTiter-Glo.
The mark [3] stands for this setting: MV4-11, 72 h, compound alone (without gilteritinib), three days, 11 IC50.
The mark [4] stands for this setting: MV4-11, 72 h, with gilteritinib 10 nM, three days, 11 IC50 gilteritinib.
Setting [5] is: MOLM-13, 72 h, compound alone (without gilteritinib), three days, read-out: MOLM-13 IC50.
The mark [6] stands for this setting: MOLM-13, 72 h, with gilteritinib 20 nM, three days, read-out: MOLM-13 IC50 gilteritinib.
Where [7] appears, read: MV4-11, 72 h, compound with gilteritinib 10 nM, three days, 11 IC50 gilteritinib.
Setting [8] is: MOLM-13, 72 h, compound with gilteritinib 20 nM, three days, read-out: MOLM-13 IC50 gilteritinib.
[9] abbreviates: MV4-11, 72 h, with 10 nM gilteritinib, 3 days, 11 IC50 gilteritinib.
The mark [10] stands for this setting: MV4-11, 72 h, without gilteritinib, 3 days, 11 IC50.
Where [11] appears, read: MOLM-13, 72 h, with 20 nM gilteritinib, 3 days, read-out: MOLM-13 IC50 gilteritinib.
Setting [12] is: MOLM-13, 72 h, without gilteritinib, 3 days, read-out: MOLM-13 IC50.

Read-outs that look alike come from different tables or passages of the source. A value given as a limit tells only on which side of the number the result lay.

In the case of `O=C1CCC(N2Cc3c(Nc4ccnc(Nc5cccc(C(=O)N6CCN(c7ccccn7)CC6)c5)n4)cccc3C2=O)C(=O)N1` (centres unmarked) [GS-080, 3-(1-Oxo-4-((2-((3-(4-(pyridin-2-yl)piperazine-1-carbonyl)phenyl)amino)pyrimidin-4-yl)amino)isoindolin-2-yl)piperidine-2,6-dione], the IC50 in test [1] (setting [3]) is above 1000 nM; in test [1] (setting [4]), 100 to 1000 nM; in test [2] (setting [5]), above 1000 nM; in test [2] (setting [6]), 100 to 1000 nM.
In the case of `O=C1CCC(N2Cc3cc(OCCCCCC(=O)N4CCC(n5cc(-c6cnc7ccccc7n6)cn5)CC4)ccc3C2=O)C(=O)N1` (centres unmarked) [GS-493, 3-(1-oxo-5-((6-oxo-6-(4-(4-(quinoxalin-2-yl)-1H-pyrazol-1-yl)piperidin-1-yl)hexyl)oxy)isoindolin-2-yl)piperidine-2,6-dione], the IC50 in test [1] (setting [3]) was 10 to 100 nM; in test [1] (setting [7]) it was below 10 nM; in test [2] (setting [5]), above 1000 nM; in test [2] (setting [8]), below 10 nM.
Consider `O=C1CCC(N2Cc3ccc(NCCCC4CC(n5cc(-c6cnc7ccccc7n6)cn5)C4)cc3C2=O)C(=O)N1` (centres unmarked) [GS-131, 3-(1-Oxo-6-((3-(3-(4-(quinoxalin-2-yl)-1H-pyrazol-1-yl)cyclobutyl)propyl)amino)isoindolin-2-yl)piperidine-2,6-dione], for which the IC50 in test [1] (setting [3]), in test [1] (setting [4]), in test [2] (setting [5]) and in test [2] (setting [6]) was above 1000 nM throughout.
As to `O=C1CCC(N2C(=O)c3ccc(NCCC[C@H]4C[C@H](n5cc(-c6ccnc(N7CCOCC7)n6)cn5)C4)cc3C2=O)C(=O)N1` (stereo partly drawn) [GS-239, 2-(2,6-Dioxopiperidin-3-yl)-5-((3-(trans-3-(4-(2-morpholinopyrimidin-4-yl)-1H-pyrazol-1-yl)cyclobutyl)propyl)amino)isoindoline-1,3-dione], the IC50 was 100 to 1000 nM in test [1] (setting [3]), 10 to 100 nM in test [1] (setting [4]), above 1000 nM in test [2] (setting [5]) and 10 to 100 nM in test [2] (setting [6]).
For the compound `O=C1CCC(N2Cc3cc(CNC(=O)C(F)(F)CCC(=O)N4CCC(n5cc(-c6cnc7cccc(Br)c7n6)cn5)CC4)ccc3C2=O)C(=O)N1` (centres unmarked) [GS-007, 5-(4-(4-(8-bromoquinoxalin-2-yl)-1H-pyrazol-1-yl)piperidin-1-yl)-N-((2-(2,6-dioxopiperidin-3-yl)-1-oxoisoindolin-5-yl)methyl)-2,2-difluoro-5-oxopentanamide], the IC50 in test [1] (setting [9]) is 9.9 nM; in test [1] (setting [10]), 170 nM; in test [2] (setting [11]), 32 nM; in test [2] (setting [12]), 179 nM.
Take `O=C1CCC(N2C(=O)c3ccc(NC[C@H]4C[C@H](n5cc(-c6nccc7[nH]ncc67)c(C6CC6)n5)C4)cc3C2=O)C(=O)N1` (stereo partly drawn) [GS-299, 5-(((trans-3-(3-Cyclopropyl-4-(1H-pyrazolo[4,3-c]pyridin-4-yl)-1H-pyrazol-1-yl)cyclobutyl)methyl)amino)-2-(2,6-dioxopiperidin-3-yl)isoindoline-1,3-dione]: the IC50 in test [1] (setting [3]) was below 10 nM; in test [1] (setting [4]) it was below 10 nM; in test [2] (setting [5]), 10 to 100 nM; in test [2] (setting [6]), below 10 nM.
In the case of `O=C(CC12CC(C(=O)N3CCC(n4cc(-c5cnc6ccccc6n5)cn4)CC3)(C1)C2)NCc1ccc2c(c1)CN(C1CCC(=O)NC1=O)C2=O` (centres unmarked) [GS-121, N-((2-(2,6-dioxopiperidin-3-yl)-1-oxoisoindolin-5-yl)methyl)-2-(3-(4-(4-(quinoxalin-2-yl)-1H-pyrazol-1-yl)piperidine-1-carbonyl)bicyclo[1.1.1]pentan-1-yl)acetamide], the IC50 in test [1] (setting [3]) is 100 to 1000 nM; in test [1] (setting [4]), 10 to 100 nM; in test [2] (setting [5]), above 1000 nM; in test [2] (setting [6]), 100 to 1000 nM.
For the compound `O=C1CCC(N2C(=O)c3ccc(NC(=O)COCC(=O)N4CCC(n5cc(-c6cnc7ccccc7n6)cn5)CC4)cc3C2=O)C(=O)N1` (centres unmarked) [GS-342, N-(2-(2,6-Dioxopiperidin-3-yl)-1,3-dioxoisoindolin-5-yl)-2-(2-oxo-2-(4-(4-(quinoxalin-2-yl)-1H-pyrazol-1-yl)piperidin-1-yl)ethoxy)acetamide], the IC50 in test [1] (setting [3]), in test [1] (setting [4]), in test [2] (setting [5]) and in test [2] (setting [6]) was above 1000 nM each time.
Take `Cc1nn(CCCCCCNc2ccc3c(c2)C(=O)N(C2CCC(=O)NC2=O)C3=O)c(C)c1-c1cnc2cccc(C#N)c2n1` (centres unmarked) [GS-166, 3-(1-(6-((2-(2,6-Dioxopiperidin-3-yl)-1,3-dioxoisoindolin-5-yl)amino)hexyl)-3,5-dimethyl-1H-pyrazol-4-yl)quinoxaline-5-carbonitrile]: the IC50 in test [1] (setting [3]) was 10 to 100 nM; in test [1] (setting [4]) it was below 10 nM; in test [2] (setting [5]), 10 to 100 nM; in test [2] (setting [6]), below 10 nM.
`O=C1CCC(N2Cc3ccc(CCCCCCC(=O)N4CCN(c5ccccn5)CC4)cc3C2=O)C(=O)N1` (centres unmarked) [GS-096, 3-(1-Oxo-6-(7-oxo-7-(4-(pyridin-2-yl)piperazin-1-yl)heptyl)isoindolin-2-yl)piperidine-2,6-dione]: the IC50 was 10 to 100 nM in test [1] (72 h, compound alone (without gilteritinib), three days, 11 IC50); below 10 nM in test [1] (72 h, with gilteritinib 10 nM, three days, 11 IC50 gilteritinib); 100 to 1000 nM in test [2] (72 h, compound alone (without gilteritinib), three days, read-out: MOLM-13 IC50); below 10 nM in test [2] (72 h, with gilteritinib 20 nM, three days, read-out: MOLM-13 IC50 gilteritinib).
As to `O=C1CCC(N2C(=O)c3ccc(NC[C@H]4C[C@@H](n5cc(-c6cnc7ccc(C8CCOCC8)cc7n6)cn5)C4)cc3C2=O)C(=O)N1` (stereo partly drawn) [GS-193, 2-(2,6-Dioxopiperidin-3-yl)-5-(((cis-3-(4-(7-(tetrahydro-2H-pyran-4-yl)quinoxalin-2-yl)-1H-pyrazol-1-yl)cyclobutyl)methyl)amino)isoindoline-1,3-dione], the IC50 is above 1000 nM in test [1] (setting [3]), 100 to 1000 nM in test [1] (setting [4]), 100 to 1000 nM in test [2] (setting [5]) and 100 to 1000 nM in test [2] (setting [6]).
With `O=C1CCC(N2C(=O)c3ccc(NCCC[C@H]4C[C@H](n5cc(-c6nccc(N7CCOCC7)n6)cn5)C4)cc3C2=O)C(=O)N1` (stereo partly drawn) [GS-240, 2-(2,6-Dioxopiperidin-3-yl)-5-((3-(trans-3-(4-(4-morpholinopyrimidin-2-yl)-1H-pyrazol-1-yl)cyclobutyl)propyl)amino)isoindoline-1,3-dione], the IC50 is 10 to 100 nM in test [1] (setting [3]), below 10 nM in test [1] (setting [4]), 100 to 1000 nM in test [2] (setting [5]) and 10 to 100 nM in test [2] (setting [6]).
`O=C1CCC(N2C(=O)c3ccc(NC[C@H]4C[C@H](n5cc(-c6cccc(OC7CC7)n6)c(C6CC6)n5)C4)cc3C2=O)C(=O)N1` (stereo partly drawn) [GS-471, 5-(((trans-3-(4-(6-cyclopropoxypyridin-2-yl)-3-cyclopropyl-1H-pyrazol-1-yl)cyclobutyl)methyl)amino)-2-(2,6-dioxopiperidin-3-yl)isoindoline-1,3-dione]: the IC50 was in the range of 10 to 100 nM in test [1] (setting [3]), 10 to 100 nM in test [1] (setting [7]), 100 to 1000 nM in test [2] (setting [5]) and 10 to 100 nM in test [2] (setting [8]).
As for `O=C1CCC(N2C(=O)c3ccc(NCCCCCCn4cc(-c5cnc6ccc(C7CCOCC7)cc6n5)cn4)cc3C2=O)C(=O)N1` (centres unmarked) [GS-542, 2-(2,6-Dioxopiperidin-3-yl)-5-((6-(4-(7-(tetrahydro-2H-pyran-4-yl)quinoxalin-2-yl)-1H-pyrazol-1-yl)hexyl)amino)isoindoline-1,3-dione], the IC50 in test [1] (setting [3]) was 10 to 100 nM; in test [1] (setting [7]), below 10 nM; in test [2] (setting [5]), 10 to 100 nM; in test [2] (setting [8]), below 10 nM.
On to `O=C1CCC(N2C(=O)c3ccc(NCCCCCC(=O)N4CCC(n5cc(-c6ncccn6)cn5)CC4)cc3C2=O)C(=O)N1` (centres unmarked) [GS-051, 2-(2,6-Dioxopiperidin-3-yl)-5-((6-oxo-6-(4-(4-(pyrimidin-2-yl)-1H-pyrazol-1-yl)piperidin-1-yl)hexyl)amino)isoindoline-1,3-dione], for which the IC50 was 10 to 100 nM in test [1] (setting [3]), below 10 nM in test [1] (setting [4]), 100 to 1000 nM in test [2] (setting [5]) and 10 to 100 nM in test [2] (setting [6]).
`O=C1CCC(N2C(=O)c3ccc(NCCCCCC(=O)N4CCC(n5cc(-c6cnccn6)cn5)CC4)cc3C2=O)C(=O)N1` (centres unmarked) [GS-009, 2-(2,6-Dioxopiperidin-3-yl)-5-((6-oxo-6-(4-(4-(pyrazin-2-yl)-1H-pyrazol-1-yl)piperidin-1-yl)hexyl)amino)isoindoline-1,3-dione]: the IC50 in test [1] (setting [9]) turned out to be 22 nM; in test [1] (setting [10]) it was 296 nM; in test [2] (setting [11]), 18 nM; in test [2] (setting [12]), 35 nM.
Consider `O=C1CCC(N2C(=O)c3ccc(NCCC[C@H]4C[C@@H](n5cc(-c6cnc7cc(N8CCNCC8)ccc7n6)cn5)C4)cc3C2=O)C(=O)N1` (stereo partly drawn) [GS-425, 2-(2,6-dioxopiperidin-3-yl)-5-((3-(cis-3-(4-(6-(piperazin-1-yl)quinoxalin-2-yl)-1H-pyrazol-1-yl)cyclobutyl)propyl)amino)isoindoline-1,3-dione], for which the IC50 in test [1] (setting [3]) is above 1000 nM; in test [1] (setting [7]), 10 to 100 nM; in test [2] (setting [5]), 100 to 1000 nM; in test [2] (setting [8]), 10 to 100 nM.
